In the experiment the target is Programmed cell death 1 ligand 1 (Homo sapiens, UniProt Q9NZQ7). The experiment can be described thus: Enzyme-Linked Immunosorbent Assay—ELISA: 96 Well plates were coated with 1 μg/mL of human PD-L1 (obtained from R&D) in PBS overnight at 4′° C. The wells were then blocked with 2% BSA in PBS (W/V) with 0.05% TWEEN-20 for 1 hour at 37′° C. The plates were washed 3 times with PBS/0.05% TWEEN-20 and the compounds were serial diluted (1:5) in dilution medium and added to the ELISA plates. Human PD-1 and biotin 0.3 μg/mL (ACRO Biosystems) were added and incubated for 1 hour at 37° C. then washed 3 times with PBS/0.05% TWEEN-20. A second block was performed with 2% BSA in PBS (WNV)/0.05% TWEEN-20 for 10 min at 37° C. and the plates were washed 3 times with PBS/0.05% TWEEN-20. Streptavidin-HIRP was added for 1 hour at 37° C. then the plates were washed 3 times with PBS/0.05% TWEEN-20. TMB substrate was added and reacted for 20 min at 37° C. A stop solution (2 N aqueous H2SO4) was added.
Chain of Programmed cell death 1 ligand 1 (Q9NZQ7 whole entry): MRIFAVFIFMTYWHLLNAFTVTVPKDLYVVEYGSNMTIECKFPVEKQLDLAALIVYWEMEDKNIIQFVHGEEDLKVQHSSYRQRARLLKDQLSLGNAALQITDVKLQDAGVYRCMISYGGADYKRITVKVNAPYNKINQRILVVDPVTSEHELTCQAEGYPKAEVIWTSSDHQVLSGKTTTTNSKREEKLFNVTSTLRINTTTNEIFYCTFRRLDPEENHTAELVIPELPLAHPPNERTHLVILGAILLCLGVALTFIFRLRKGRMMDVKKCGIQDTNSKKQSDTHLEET

What is called IC50 is the midpoint of a concentration-inhibition curve.

Where only a bound is given, the exact number is not on record here.

`COc1cc(-c2cccc(-c3cccc(-c4cc(F)c(CN)c(OC)c4)c3C)c2C)cc(F)c1CN` gave a half-inhibitory concentration (IC50) of under 1000 nM.

`COc1cccc(-c2cccc(-c3cc(F)c(CN)c(OC)c3)c2C)c1F` registered an IC50 of under 1000 nM.

`COc1cc(-c2cccc(-c3ccc4c(c3F)OCCO4)c2C)cc(F)c1CN` registered a concentration for half-maximal inhibition (IC50) of under 1000 nM.

In turn, `COc1cc(-c2cccc(-c3ccc4c(c3)NC(=O)CO4)c2C)cc(F)c1CN` displayed an IC50 of under 1000 nM.

As for `COc1cc(-c2cccc(-c3cccc(C)c3)c2C)cc(F)c1CN`, the IC50 was under 1000 nM.

For the compound `COc1cccc(-c2cccc(-c3cc(F)c(CN)c(OC)c3)c2C)c1C`, the half-inhibitory concentration (IC50) is under 1000 nM.

Turning to `COc1cc(-c2cccc(-c3ccc4c(c3)OCCO4)c2C)cc(F)c1CN`, the half-maximal inhibitory concentration (IC50) was under 1000 nM.

The compound `COc1cc(-c2cccc(-c3ccc4nc[nH]c(=O)c4c3)c2C)cc(F)c1CN` registered a half-inhibitory concentration (IC50) of under 1000 nM.

`COc1cccc(-c2cccc(-c3cc(F)c(CN)c(OC)c3)c2C)c1` came in with a half-maximal inhibitory concentration (IC50) of under 1000 nM.

`COc1cc(F)cc(-c2cccc(-c3cc(F)c(CN)c(OC)c3)c2C)c1`: the IC50 was under 1000 nM.

`COC(=O)c1ccc(-c2cccc(-c3cccc(-c4cc(F)c(CN)c(OC)c4)c3C)c2C)cc1OC` displayed an IC50 of under 1000 nM.

`Cc1c(-c2ccc(CN)cc2)cccc1-c1cccc(-c2ccc(CN)cc2)c1C` gave an IC50 of under 1000 nM.

Take `COc1cc(-c2cccc(-c3ccc4c(c3C)OCCO4)c2C)cc(F)c1CN`: the IC50 was under 1000 nM.

Turning to `COc1ccc(F)c(-c2cccc(-c3cc(F)c(CN)c(OC)c3)c2C)c1F`, the IC50 was under 1000 nM.

On to `COc1cc(-c2cccc(-c3cccc(-c4cc(F)c(CN)c(OC)c4)c3C)c2C)ccc1CC(N)=O`, for which the half-inhibitory concentration (IC50) was under 1000 nM.

For the compound `COc1cc(OC)c(F)c(-c2cccc(-c3cc(F)c(CN)c(OC)c3)c2C)c1F`, the concentration for half-maximal inhibition (IC50) is under 1000 nM.

In turn, `COc1cc(-c2cccc(-c3cccc(C)c3F)c2C)cc(F)c1CN` displayed an IC50 of under 1000 nM.

Compound `COc1cc(-c2cccc(-c3ccc4c(c3)OC(CN)CO4)c2C)cc(F)c1CN` (centres undefined) showed an IC50 of under 1000 nM.

`COc1cc(-c2cccc(-c3cccc(-c4ccc(CN)cc4)c3C)c2C)cc(F)c1CN` came in with an IC50 of under 1000 nM.
